Measured values as given in ChEMBL document CHEMBL4814022, “Enantiomeric 4'-truncated 6'-fluoro-3-deazaneplanocin and its 3-bromo derivative: Synthesis and antiviral properties, including Ebola and Marburg” (Bioorg Med Chem Lett, 2021).
The source made the active and inactive calls. No cut-off for these calls is given here.

Legend:
Chikungunya virus = experiment: Antiviral activity against Chikungunya virus infected in African green monkey Vero 76 cells; type: functional, organism-based
Influenza A virus = experiment: Antiviral activity against Influenza A virus (H1N1) infected in dog MDCK cells; type: functional, organism-based
Lassa virus = experiment: Antiviral activity against Lassa virus infected in African green monkey Vero cells; type: functional, organism-based; conditions: Mammarenavirus lassaense
Measles morbillivirus [1] = experiment: Antiviral activity against Measles virus infected in African green monkey Vero 76 cells; type: functional, organism-based
[2] = Selectivity index, ratio of EC50 for antiviral activity against BK polyomavirus infected in human HFF cells by visible analysis to CC50 for human HFF cells; type: toxicity, cell-based; conditions: read-out: Ratio CC50/EC50
West Nile virus = experiment: Antiviral activity against West Nile virus infected in African green monkey Vero 76 cells; type: functional, organism-based
Ebolavirus = experiment: Antiviral activity against Ebola virus infected in African green monkey Vero 76 cells; type: functional, organism-based
[3] = Cytotoxicity against human HFF cells; type: cell-based
Rift Valley fever virus = experiment: Antiviral activity against Rift Valley fever virus infected in African green monkey Vero 76 cells; type: functional, organism-based
Human alphaherpesvirus 1 = experiment: Antiviral activity against HSV-1 infected in human HFF cells; type: functional, organism-based
BK polyomavirus = experiment: Antiviral activity against BK polyomavirus infected in human HFF cells; type: functional, organism-based; conditions: Betapolyomavirus hominis
Pichinde virus = experiment: Antiviral activity against Pichinde virus infected in African green monkey Vero cells; type: functional, organism-based
Enterovirus A71 = experiment: Antiviral activity against Human enterovirus 71 infected in African green monkey Vero 76 cells; type: functional, organism-based
dengue virus type 2 = experiment: Antiviral activity against Dengue virus 2 infected in African green monkey Vero 76 cells; type: functional, organism-based
Tacaribe virus = experiment: Antiviral activity against Tacaribe virus infected in African green monkey Vero cells; type: functional, organism-based; conditions: Mammarenavirus tacaribeense
Yellow fever virus = experiment: Antiviral activity against Yellow fever virus infected in African green monkey Vero 76 cells; type: functional, organism-based
[4] = system: Venezuelan equine encephalitis virus; experiment: Antiviral activity against Venezuelan equine encephalitis virus infected in African green monkey Vero 76 cells; type: functional, organism-based
Hepatitis B virus = experiment: Antiviral activity against Hepatitis B virus infected in human HepG2.2.15 cells; type: functional, organism-based
Zaire ebolavirus = experiment: Antiviral activity against Zaire ebola virus infected in African green monkey Vero cells; type: functional, organism-based
[5] = Selectivity index, ratio of CC50 for African green monkey Vero cells to EC50 for antiviral activity against Ebola virus infected in African green monkey Vero cells; type: toxicity; conditions: read-out: Ratio CC50/EC50
Norovirus = experiment: Antiviral activity against Norovirus infected in human HG23 cells; type: functional, organism-based
Measles morbillivirus [6] = experiment: Antiviral activity against Measles virus infected in African green monkey Vero cells by neutral red assay; type: functional, organism-based
[7] = Selectivity index, ratio of EC50 for antiviral activity against Measles virus infected in African green monkey Vero cells to CC50 for African green monkey Vero cells; type: toxicity; conditions: read-out: Ratio CC50/EC50
[8] = Selectivity index, ratio of EC50 for antiviral activity against Marburgvirus Angola infected in African green monkey Vero cells to CC50 for African green monkey Vero cells; type: toxicity; conditions: read-out: Ratio CC50/EC50
Murine norovirus = experiment: Antiviral activity against Murine norovirus infected in mouse RAW264.7 cells; type: functional, organism-based
Punta Toro virus = experiment: Antiviral activity against Punta Toro virus infected in African green monkey Vero 76 cells; type: functional, organism-based
[9] = system: Japanese encephalitis virus; experiment: Antiviral activity against Japanese encephalitis virus infected in African green monkey Vero 76 cells; type: functional, organism-based
[10] = Cytotoxicity against African green monkey Vero cells; type: cell-based; conditions: chlorocebus sabaeus
Human adenovirus 5 = experiment: Antiviral activity against Human adenovirus 5 infected in human A549 cells; type: functional, organism-based
Junin virus = experiment: Antiviral activity against Junin virus infected in African green monkey Vero cells; type: functional, organism-based; conditions: Mammarenavirus juninense
Measles morbillivirus [11] = experiment: Antiviral activity against Measles virus infected in African green monkey Vero cells by visible analysis; type: functional, organism-based
[12] = Cytotoxicity against human HG23 cells; type: cell-based
[13] = Selectivity index, ratio of EC50 for antiviral activity against Norovirus infected in human HG23 cells by visible analysis to CC50 for human HG23 cells; type: toxicity, cell-based
[14] = Selectivity index, ratio of EC50 for antiviral activity against Measles virus infected in African green monkey Vero cells by visible analysis to CC50 for African green monkey Vero cells; type: toxicity; conditions: read-out: Ratio CC50/EC50
Marburgvirus = experiment: Antiviral activity against Marburgvirus Angola infected in African green monkey Vero cells; type: functional, organism-based; conditions: Orthomarburgvirus

Structure (SMILES)	Activity (Chikungunya virus)	Activity (Influenza A virus)	Activity (West Nile virus)	Activity (Rift Valley fever virus)	Activity (Pichinde virus)	Activity (Enterovirus A71)	Activity (dengue virus type 2)	Activity (Tacaribe virus)	Activity (Yellow fever virus)	Activity [4]	EC50 (Zaire ebolavirus)	selectivity ratio [5]	EC50 (Norovirus)	EC50 (Measles morbillivirus [6])	selectivity ratio [7]	selectivity ratio [8]	CC50 [10]	CC50 [12]	EC50 (Marburgvirus)	other results
Nc1nccc2c1ncn2[C@H]1C(F)=C[C@H](O)[C@@H]1O	inactive	inactive	inactive	inactive	inactive	inactive	inactive	inactive	inactive	inactive										Activity (Lassa virus): inactive; Activity (Measles morbillivirus [1]): inactive; selectivity ratio [2]: > 7; Activity (Ebolavirus): inactive; CC50 [3]: > 150 µM; Activity (Human alphaherpesvirus 1): inactive; EC50 (BK polyomavirus): 23 µM
Nc1ncc(Br)c2c1ncn2[C@@H]1C(F)=C[C@@H](O)[C@H]1O	inactive	inactive	inactive	inactive	inactive	inactive	inactive	inactive	inactive	inactive	0.11 µM	381	6.4 µM	1.2 µM	7.9	420	≥ 9.5 µM	> 100 µM	0.1 µM	Activity (Hepatitis B virus): inactive; Activity (Murine norovirus): inactive; Activity (Punta Toro virus): inactive; Activity [9]: inactive; Activity (Human adenovirus 5): inactive; Activity (Junin virus): inactive; EC50 (Measles morbillivirus [11]): 1.8 µM; selectivity ratio ([13]; read-out: Ratio CC50/EC50): > 16; selectivity ratio [14]: 6.7
Nc1nccc2c1ncn2[C@@H]1C(F)=C[C@@H](O)[C@H]1O	inactive	inactive	inactive	inactive	inactive	inactive	inactive	inactive	inactive	inactive	0.12 µM	117	2.7 µM	3.6 µM	36	27	≥ 14 µM	> 100 µM	0.52 µM	Activity (Hepatitis B virus): inactive; Activity (Murine norovirus): inactive; Activity (Punta Toro virus): inactive; Activity [9]: inactive; Activity (Human adenovirus 5): inactive; Activity (Junin virus): inactive; EC50 (Measles morbillivirus [11]): 4.2 µM; selectivity ratio ([13]; read-out: Ratio CC50/EC50): > 37; selectivity ratio [14]: 10
Nc1ncc(Br)c2c1ncn2[C@H]1C(F)=C[C@H](O)[C@@H]1O	inactive	inactive	inactive	inactive	inactive	inactive	inactive	inactive	inactive	inactive										Activity (Lassa virus): inactive; Activity (Measles morbillivirus [1]): inactive; selectivity ratio [2]: > 4; Activity (Ebolavirus): inactive; CC50 [3]: > 150 µM; Activity (Human alphaherpesvirus 1): inactive; EC50 (BK polyomavirus): 34.5 µM; EC90 (BK polyomavirus): 145 µM
Nc1ccn([C@@H]2O[C@H](CO)[C@@H](O)[C@H]2F)c(=O)n1														1.1 µM	> 91					
C[C@@]1(O)[C@H](O)[C@@H](CO)O[C@H]1n1ccc(N)nc1=O													6.4 µM					> 300 µM		selectivity ratio [13]: > 47
NC(=O)c1nc(F)cnc1O [FAVIPIRAVIR]											66 µM	15				> 6.5	> 1000 µM		155 µM	
